Assay [1] has as its system substantia nigra TH. In words: Substantia nigra TH expression in MPTP Parkinson's disease model mouse (immunofluorescence). To be noted: percentage of mean intensity of blank control group, gavage 21 days after MPTP modeling. In kind it is in vivo. As to the method: (§1) Neurotoxins can be used to establish PD animal models. Currently, 1-methyl-4-phenyl-1,2,3,6-tetrahydropyridine (MPTP) is the sole synthetic toxin which is recognized to induce PD symptoms in human and non-human primates and in mice. Using MPTP subacute modeling method, C57BL/6J male mice were intraperitoneally injected with MPTP 30 mg/kg, once a day for 5 consecutive days. The experiment animals were divided into blank control group, MPTP model group, and compound treatment group. For the […] compound treatment group, the compound was administrated by gavage for 21 consecutive days after the completion of modeling; for the MPTP model group, the normal saline was administrated by gavage for 21 consecutive days after the completion of modeling; and for the blank control group, the normal saline was first intraperitoneally injected for 5 days, and then administrated by gavage for 21 days.
The main cause of PD lies in the pathological changes in the substantia nigra-striatum projection system of the brain and the progressive degeneration and loss of dopaminergic neurons. Tyrosine hydroxylase (TH) is the first enzyme in the biosynthesis of catecholamine neurotransmitters, as well as the first rate-limiting enzyme in the dopamine synthesis. It plays an important role in the synthesis and metabolism of the neurotransmitter DA. The TH in PD animal models and patients has a wide range of abnormal changes, from the gene expression to the enzyme protein content and enzyme activity. The detection of the TH expression in the midbrain and substantia nigra of PD model mice can be used to evaluate the neuroprotective activity of the compound.
Half of experiment mice in each group were taken to separate the midbrain after perfusion and fixation. The tissue was trimmed, and the substantia nigra-striatum area was taken to prepare paraffin sections. The TH immunofluorescence staining was performed in the brain sections of mice in each group. […] The experiment included blank control group, MPTP model group, positive control group (caffeic acid phenethyl ester, CAPE), prototype control group (styryl sulfone compounds 3B, 3C, 3D, and 3G, whose structures are shown as above), and target compound group.

The subject of assay [2] is hippocampus CD11b. In words: Number of hippocampus microglial cells with CD11b positive expression in MPTP Parkinson's disease model mouse (immunohistochemistry). To be noted: for Positive cell number (microglial cells with CD11b positive expression): hippocampus, MPTP Parkinson's disease model mouse, immunohistochemistry. In kind it is in vivo. As to the method: as §1
(§2) Neuron-glial cell network homeostasis disorder is an important factor for the selective and progressive death of substantia nigra dopaminergic neurons in PD. In the neurotoxic effect of MPTP, the excessive activations of microglial cells and astrocytes produce a variety of inflammatory cytokines and reactive oxygen species (ROS). These inflammatory factors and ROS amplify their respective toxicities and mediate malignant feedback loop, causing a cascade inflammation response and aggravating the pathological process of PD. CD11b and GFAP are the marker proteins for activations of microglial cells and astrocytes, respectively. Therefore, the effect of the target compounds on the activations of the microglial cells and astrocytes in the substantia nigra, hippocampus, and midbrain areas of MPTP-induced PD mice can be investigated, to explore the mechanism of the anti-PD effect of the target compounds by inhibiting the neuroinflammation.
Half of experiment mice in each group were taken to separate the midbrain after perfusion and fixation. The tissue was trimmed, and the hippocampus area was taken to prepare paraffin sections. The CD11b immunohistochemical staining was performed for the statistics of the change in the number of microglial cells with CD11b positive expression. The experiment included blank control group, MPTP model group, positive control group (caffeic acid phenethyl ester, CAPE), prototype control group (styryl sulfone compounds 3B, 3C, 3D, and 3G, whose structures are shown as above), and target compound group.

The subject of assay [3] is fetal rat midbrain neurons. In words: Survival rate of primary midbrain neurons induced by MPP+ (CCK-8). In kind it is cell-based. To be noted: for viability at 5 µM / viability at 10 µM / viability at 20 µM: Rattus norvegicus, Neuron, read-out: Survival rate (%). From the text:
The main pathological feature of Parkinson's disease (PD) lies in the degeneration and loss of dopaminergic neuron in the substantia nigra-striatum of the midbrain. 1-Methyl-4-phenylpyridinium (MPP+) has a high affinity to dopamine carriers and a selective toxicity on dopaminergic neurons. Thus, MPP+ is one of the most ideal classic neurotoxins for establishing PD cell models. The primary cell culture of fetal rat midbrain is often used to establish PD cell models in recent years. Although it is more cumbersome and has higher technical requirements than cell line culture, it is closer to the pathological characteristics of PD. Thus, a PD cell model is established using neurons from the primary cell culture of fetal rat midbrain under MPP+ induction, to evaluate the protective effect of target compounds on the model neurons.
The midbrain was separated from a fetal rat of a 15-day-pregnant SD rat and cut into pieces, then subjected to trypsin digestion, pipetting, screen filtration, and resuspension steps, and inoculated in a 24-well cell culture plate pre-coated with poly-D-lysine. 12 hours after culture, cytarabine was added to inhibit the growth of glial cells. On the 5th day of neuron growth, the toxin MPP+ can be added to make a PD cell model. When detecting the activity of a target compound, the target compound was pre-incubated with midbrain neurons for 3 h, then MPP+ was added, and after 48 h co-incubation the neuronal viability was detected by CCK-8 method and the neuronal survival rate was calculated to evaluate the inhibitory activity of the target compound on the midbrain neuronal PD damage. The experiment included blank control group, MPP+ model group, positive control group (caffeic acid phenethyl ester, CAPE), prototype control group (styryl sulfone compounds 3B, 3C, 3D, and 3G), and target compound group (prepared according to Examples 1-22 in the invention).

The test system of assay [4] is substantia nigra GFAP. In words: Number of substantia nigra astrocytes with GFAP positive expression in MPTP Parkinson's disease model mouse (immunohistochemistry). To be noted: for Positive cell number (astrocytes with GFAP positive expression): substantia nigra, MPTP Parkinson's disease model mouse, immunohistochemistry. The format is in vivo. As to the method:
as §1, §2
Half of experiment mice in each group were taken to separate the midbrain after perfusion and fixation. The tissue was trimmed, and the substantia nigra area was taken to prepare paraffin sections. The GFAP immunohistochemical staining was performed for the statistics of the change in the number of astrocytes with GFAP positive expression. The experiment included blank control group, MPTP model group, positive control group (caffeic acid phenethyl ester, CAPE), prototype control group (styryl sulfone compounds 3B, 3C, 3D, and 3G, whose structures are shown as above), and target compound group.

Assay [5] deals with substantia nigra p-α-s. In words: Substantia nigra p-α-s protein expression in MPTP Parkinson's disease model mouse (immunofluorescence). The format is in vivo. To be noted: percentage of mean intensity of blank control group, gavage 21 days after MPTP modeling. As to the method:
as §1
Alpha-synuclein is an “unfolded protein” in its natural state. It exists in a monomeric form, and participates in the physiological functions such as the release of neurotransmitters, the establishment of synaptic junctions, and the regulation of synaptic plasticity. Under pathological conditions, more than 90% of alpha-synuclein is phosphorylated at serine of position 129 and converted into phosphorylated alpha-synuclein (p-α-s), thereby forming Lewy bodies. The formation of Lewy bodies is one of the main pathological manifestations and pathological mechanisms for Parkinson's disease, and plays an important role in the formation and development of PD. The detection of the p-α-s expression in the midbrain and substantia nigra of PD model mice can evaluate the neuroprotective activity of the compound.
Half of experiment mice in each group were taken to separate the midbrain after perfusion and fixation. The tissue was trimmed, and the substantia nigra-striatum area was taken to prepare paraffin sections. The p-α-s immunofluorescence staining was performed in the brain sections of mice in each group. […] The experiment included blank control group, MPTP model group, positive control group (caffeic acid phenethyl ester, CAPE), prototype control group (styryl sulfone compounds 3B, 3C, 3D, and 3G, whose structures are shown as above), and target compound group.

Setting [6] is: 5 μM, 3 h pre-incubation, 48 h with MPP+.
Where [7] appears, read: 10 μM, 3 h pre-incubation, 48 h with MPP+.
The mark [8] stands for this setting: 20 μM, 3 h pre-incubation, 48 h with MPP+.

Where two headings read alike, the source gives them in different places.

Regarding `CC(C)N(c1ccc(CCS(=O)(=O)/C=C/c2ccc(OC(=O)N(C)c3ccc(I)cc3)c(OCCOCc3ccccc3)c2)cc1)C(C)C` [Compound A1-3, (E)-2-(2-benzyloxyethoxy)-4-{2-[4-(N,N-diisopropylamino)phenylethylsulfonyl]ethenyl}phenyl-N-(4-iodophenyl)-N-methylcarbamate], in assay [1], the “Expression (Immunofluorescence intensity %)” value turned out to be 89.68 ± 5.69%. The “Positive cell number (microglial cells with CD11b positive expression)” value in assay [2] is listed as 14 ± 2. In addition, in assay [3] (48 h), the viability at 5 µM worked out at 74.3 ± 3.75%, the viability at 10 µM was 89.7 ± 1.95% and the viability at 20 µM was determined as 94.1 ± 1.87%. The “Positive cell number (astrocytes with GFAP positive expression)” value in assay [4] came to 105 ± 6. In addition, the “Expression (Immunofluorescence intensity %)” value in assay [5] is listed as 134.19 ± 11.28%.
As for `COCCN(C)C(=O)Oc1cc(/C=C/S(=O)(=O)CCc2cccc(-c3ccc(C)o3)c2)ccc1OC(C)=O` [Compound J1-4, (E)-2-[N-(2-methoxyethyl)-N-methylcarbamoyloxy]-4-{2-[3-(5-methylfur-2-yl)phenylethylsulfonyl]ethenyl}phenyl acetate], the “Expression (Immunofluorescence intensity %)” value in assay [1] is reported as 88.65 ± 5.41%. Further, the “Positive cell number (microglial cells with CD11b positive expression)” value in assay [2] was found to be 10 ± 2. Moreover, in assay [3] (48 h), the viability at 5 µM worked out at 75.2 ± 3.29%, the viability at 10 µM is 84.8 ± 2.27% and the viability at 20 µM came out at 90.3 ± 2.6%. In assay [4], the “Positive cell number (astrocytes with GFAP positive expression)” value turned out to be 77 ± 4. Moreover, the “Expression (Immunofluorescence intensity %)” value in assay [5] was 116.95 ± 8.06%.
As for `CN(C)c1ccc(CC(=O)Oc2cc(/C=C/S(=O)(=O)C(Br)c3ccc(Cc4ccc(N(C)C)cc4)cc3)ccc2OC(=O)N2CCCC2C(F)(F)F)cc1` (stereo not shown) [Compound M1-5], the “Expression (Immunofluorescence intensity %)” value in assay [1] turned out to be 87.24 ± 2.97%; in assay [5] it was 67.90 ± 3.29%. Moreover, in assay [2], the “Positive cell number (microglial cells with CD11b positive expression)” value came out at 11 ± 1. Besides, the viability at 5 µM in assay [3] (setting [6]) turned out to be 68.2 ± 4.31%. Further, in assay [3] (setting [7]), the viability at 10 µM was determined as 78.2 ± 3.76%. Also, in assay [3] (setting [8]), the viability at 20 µM was 86.9 ± 3.08%. The “Positive cell number (astrocytes with GFAP positive expression)” value in assay [4] stood at 81 ± 4.
For the compound `CCN(CC)C(=O)Oc1ccc(/C=C/S(=O)(=O)Cc2ccc(C(F)(F)F)cc2)cc1OC(=O)N(CC)CC` [Compound B1-1, (E)-4-{2-[(4-trifluoromethylphenyl)mesyl]ethenyl}-1,2-phenylenebis(diethylcarbamate)], in assay [1], the “Expression (Immunofluorescence intensity %)” value was determined as 95.86 ± 4.43%. In assay [2], the “number of hippocampus microglial cells with CD11b positive expression compared with the styryl sulfone prototype compounds” value was “significantly lower” and the “Positive cell number (microglial cells with CD11b positive expression)” value is reported as 9 ± 2. For the same compound, the viability at 5 µM in assay [3] (setting [6]) stood at 78.5 ± 4.12%. Also, the viability at 10 µM in assay [3] (setting [7]) amounted to 89.7 ± 2.89%. Moreover, the viability at 20 µM in assay [3] (setting [8]) was 93.8 ± 1.59%. Besides, in assay [3] (no concentration stated), the “survival rate compared with the styryl sulfone prototype compounds” value is “significantly increased”. In assay [4], the “number of substantia nigra astrocytes with GFAP positive expression compared with the styryl sulfone prototype compounds” value was “significantly lower” and the “Positive cell number (astrocytes with GFAP positive expression)” value was 88 ± 5. The “Expression (Immunofluorescence intensity %)” value in assay [5] is reported as 82.54 ± 9.34%.
Turning to `COc1cc(/C=C/S(=O)(=O)Cc2cc(OC)c(OC)c(OC)c2)ccc1OC(=O)N(c1ccccc1)c1ccccc1` [Compound K3-3, (E)-2-methoxy-4-{2-[(3,4,5-trimethoxyphenyl)mesyl]ethenyl}-phenyl-N,N-diphenylcarbamate], the “Expression (Immunofluorescence intensity %)” value came to 98.53 ± 3.08% in assay [1] and 180.11 ± 13.51% in assay [5]. Further, the “Positive cell number (microglial cells with CD11b positive expression)” value in assay [2] was found to be 18 ± 1. The viability at 5 µM in assay [3] (setting [6]) was 62.5 ± 3.58%. For the same compound, the viability at 10 µM in assay [3] (setting [7]) is 75.5 ± 2.37%. Also, in assay [3] (setting [8]), the viability at 20 µM turned out to be 88.5 ± 1.73%. In assay [4], the “Positive cell number (astrocytes with GFAP positive expression)” value worked out at 96 ± 3.
In the case of `CC[Si](CC)(Oc1ccc(C(Cl)S(=O)(=O)/C=C/c2ccc(OC(=O)N3CC(C)OC(C)C3)c(OC(=O)c3cccc(Cl)c3OC)c2)cc1)c1ccccc1` (stereo not shown) [Compound R1-5, (E)-4-{2-[4-(diethylphenylsiloxy)phenylchloromesyl]ethenyl}-2-(3-chloro-2-methoxybenzoyloxy)phenyl-2,6-dimethylmorpholine-4-carboxylate], the “Expression (Immunofluorescence intensity %)” value is on record as 92.45 ± 3.93% in assay [1] and 125.28 ± 9.35% in assay [5]. Also, the “Positive cell number (microglial cells with CD11b positive expression)” value in assay [2] came to 17 ± 2. In addition, the viability at 5 µM in assay [3] (setting [6]) was found to be 72.3 ± 2.94%. For the same compound, the viability at 10 µM in assay [3] (setting [7]) turned out to be 82.5 ± 2.83%. The viability at 20 µM in assay [3] (setting [8]) worked out at 90.2 ± 1.76%. In assay [4], the “Positive cell number (astrocytes with GFAP positive expression)” value was 90 ± 6.
Take `Cc1ccc(S(=O)(=O)Oc2ccc(CS(=O)(=O)/C=C/c3ccc(OS(=O)(=O)c4ccc(C)cc4)c(OC(=O)N(C)S(=O)(=O)c4ccc(C)cc4)c3)cc2)cc1` [Compound S6-6, (E)-2-(N-methyl-N-p-tosylcarbamoyloxy)-4-{2-[(4-p-tosyloxyphenyl)mesyl]ethenyl}phenyl p-toluenesulfonate]: the “Expression (Immunofluorescence intensity %)” value in assay [1] is given as 96.01 ± 7.32%. For the same compound, the “Positive cell number (microglial cells with CD11b positive expression)” value in assay [2] was 9 ± 2. In assay [3] (48 h), the viability at 5 µM stood at 72 ± 2.47%, the viability at 10 µM stood at 83.2 ± 4.07% and the viability at 20 µM was 91.7 ± 3.18%. Also, the “Positive cell number (astrocytes with GFAP positive expression)” value in assay [4] came out at 78 ± 4. Further, the “Expression (Immunofluorescence intensity %)” value in assay [5] is 72.57 ± 6.63%.

Values taken from US12410124B2 (priority 2019, dated 2025).
